From patent US9499493B2, “2,4-pyrimidinediamine compounds and their uses” (Rigel Pharmaceuticals, Inc., priority 2002, dated 2016)
pIC50: −log10 of the molar value.

Key:
[1] = test system: bone marrow derived mast cells (BMMC); assay: BMMC high cell density IgE activation: hexosaminidase; assay type: cell-based, mouse; settings: anti-IgE, second part of TABLE 1, read-out: BMMC anti-IgE hexos. IC50
Experimental: (§1) After sensitizing, cells are counted, pelleted (1000 rpm, 5-10 minutes), and resuspended at 1-3×10^6 cells/ml in MT buffer. Add 100 ul of cell suspension to each well and 100 ul of compound dilutions. The final vehicle concentration is 0.5% DMSO. Incubate at 37° C. (5% CO2) for 1 hour. After 1 hour of compound treatment, stimulate cells with 6× stimulus (60 ng/ml DNP-BSA). Mix wells with the cells and allow plates to incubate at 37° C. (5% CO2) for one hour. After 1 hour incubation, pellet cells (10 minutes, 1000 RPM) and collect 200 ul per well of the supernatant, being careful not to disturb pellet, and transfer to a clean tube or 96-well plate. Place the supernatant plate on ice. During the 4-5 hour step (see next) perform the hexosiminidase assay. Resuspend cell pellet in 240 ul WEI-conditioned media containing 0.5% DMSO and corresponding concentration of compound. Incubate BMMC cells for 4-5 hours at 37° C. (5% CO2). After incubation, pellet cells (1000 RPM, 10 minutes) and collect 225 ul per well and place in −80° C. until ready to perform ELISAS. ELISAS are performed on appropriately diluted samples (determined empirically for each donor cell population so that the sample measurement falls within the standard curve) following the supplier's instructions.
Hexosaminidase assay: In a solid black 96-well assay plate, add 50 uL hexosaminidase substrate (4-methylumbelliferyl-N-acetyl-(3-D-glucosaminide; 2 mM) to each well. Add 50 uL of BMMC cell supernatant (see above) to the hexoseaminidase substrate, place at 37° C. for 30 minutes and read the plate at 5, 10, 15, and 30 minutes on a spectrophotometer.

[2] = test system: cultured human mast cells (CHMC); assay: CHMC low cell density IgE activation: tryptase assay; assay type: cell-based; settings: anti-IgE
Summary of the method: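 Cultured human mast cells (1000-1500 cells/well, donor-dependent) equilibrated 1 hr at 37° C, then stimulated with anti-IgE for 30 min at 37° C. Tryptase released into the supernatant is measured with a fluorogenic tryptase substrate after 30 min at room temperature.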

[3] = test system: cultured human mast cells (CHMC); assay: CHMC low cell density ionomycin activation: tryptase assay; assay type: cell-based
[4] = test system: IgE-induced degranulation of tissue mast cells; assay: Mouse model of passive cutaneous anaphylaxis (PCA); assay type: in vivo; settings: for % Inhibition (PCA): PO, 67% PEG/33% citrate buffer, pretreatment 15 min; for PCA response, positive controls (in words): mouse, in vivo
Experimental: This model provides a direct measure of IgE-induced degranulation of tissue mast cells. In this model, IgE primed animals are exposed to an allergen challenge, and the change in permeability of dermal vasculature that results from histamine release from mast cells is measured by change in the amount of dye leakage into surrounding tissue. Inhibition of mediator release by compounds that modulate mast cell degranulation is easily measured by extracting the dye from the tissue.
In the PCA assay mice are passively sensitized by intradermal injection with anti-dinitrophenol (DNP) IgE antibodies (Day −1). At predetermined times animals are treated with the test agent (Day 0). The modulatory effect of the agent on cutaneous mast cell degranulation is measured following intravenous injection of DNP conjugated to human serum albumin (HSA-DNP), together with Evans blue dye. The resulting cross-linking of the IgE receptor and subsequent mast cell degranulation-induced increase in vascular permeability is determined by measuring the amount of dye extravasation into the tissue. Dye is extracted from the tissue by formamide, and the absorbance of this extract is read at 620 nm.

[5] = test system: bone marrow derived mast cells (BMMC); assay: BMMC high cell density IgE activation: LTC4; assay type: cell-based, mouse; settings: anti-IgE, second part of TABLE 1
Experimental: (§2) Inhibition of degranulation was measured at both low and high cell density by quantifying the release of the granule specific factors tryptase, histamine and hexosaminidase. Inhibition of release and/or synthesis of lipid mediators was assessed by measuring the release of leukotriene LTC4 and inhibition of release and/or synthesis of cytokines was monitored by quantifying TNF-α, IL-6 and IL-13. Tryptase and hexosaminidase were quantified using fluorogenic substrates as described in their respective examples. […] The protocols of the various assays are provided below.
as §1

[6] = test system: bone marrow derived mast cells (BMMC); assay: BMMC high cell density IgE activation: TNFalpha; assay type: cell-based, mouse; settings: anti-IgE, second part of TABLE 1, read-out: BMMC anti-IgE TNF-alpha IC50
Experimental: as §2, §1

[7] = test system: bone marrow derived mast cells (BMMC); assay: BMMC high cell density IgE activation: histamine; assay type: cell-based, mouse; settings: anti-IgE, second part of TABLE 1
Experimental: as §2, §1

[8] = test system: bone marrow derived mast cells (BMMC); assay: BMMC high cell density IgE activation: IL-6; assay type: cell-based, mouse; settings: anti-IgE, second part of TABLE 1
Experimental: as §2, §1

| Compound | pIC50 [2] | pIC50 [3] | further results |
| --- | --- | --- | --- |
| Fc1cnc(Nc2ccc3c(c2)OCCO3)nc1Nc1ccc2c(c1)OCCO2 [R926109, N2,N4-Bis(3,4-ethylenedioxyphenyl)-5-fluoro-2,4-pyrimidinediamine] | – | – | % Inhibition (PCA) ([4]; 50 mg/kg): 22%; % Inhibition (PCA) ([4]; 100 mg/kg): 32%; % Inhibition (PCA) ([4]; 200 mg/kg): 48%; FcεR-mediated vascular leakage with increasing doses (in words) ([4]; solution (67% PEG/33% citrate buffer) or aqueous suspension (1.5% Avicel)): dose-dependent inhibition |
| CC(=NO)c1cccc(Nc2ncc(F)c(Nc3cccc(C(C)=NO)c3)n2)c1 [R950379, N2,N4-Bis(3-methylcarbonyloximephenyl)-5-fluoro-2,4-pyrimidinediamine] | 6.26 | < 5.00 | – |
| ON=C(c1ccccc1)c1cccc(Nc2ncc(F)c(Nc3cccc(C(=NO)c4ccccc4)c3)n2)c1 [R950380, N2,N4-Bis(3-phenylcarbonyloximephenyl)-5-fluoro-2,4-pyrimidinediamine] | 5.52 | < 5.00 | – |
| CNC(=O)COc1cccc(Nc2ncc(F)c(Nc3ccc(OC(F)(F)F)c(C(=O)OC)c3)n2)c1 [R950392, N4-(3-Methoxycarbonyl-4-trifluoromethoxyphenyl)-5-fluoro-N2-[3-(N-methylamino)carbonylmethyleneoxyphenyl]-2,4-pyrimidinediamine] | 6.02 | < 5.00 | – |
| CNC(=O)COc1cccc(Nc2ncc(F)c(Nc3ccc4c(c3)C(NC(C)=O)CCO4)n2)c1 (centres unmarked) [R950393, N4-(4-Acetylamino-3,4-dihydro-2H-1-benzopyran-6-yl)-5-fluoro-N2-[3-(N-methylamino)carbonylmethyleneoxyphenyl]-2,4-pyrimidinediamine] | 6.39 | < 5.00 | – |
| CN1CCC(=C2c3ccccc3C=Cc3ccccc32)CC1 [cyproheptadine, reference compound] | – | – | inhibition of the PCA response ([4]; 8 mg/kg, i.p., 30 minutes pretreatment time, n=23 experiments): 61%; PCA response, positive controls (in words) [4]: inhibit the PCA response |
| CN(C)CCOC(c1ccccc1)c1ccccc1 [diphenhydramine, reference compound] | – | – | PCA response, positive controls (in words) [4]: inhibit the PCA response |
| N2,N4-Bis(methoxycarbonylbenzyl)-5-cyano-2,4-pyrimidinediamine [R925819] | < 5.00 | < 5.00 | – |
| N2-(3,4-Ethylenedioxyphenyl)-5-ethoxycarbonyl-4-[N-(L)-phenyl glycinyl ethyl ester)-2-pyrimidineamine [R926536] | < 5.00 | < 5.00 | – |
| N2-(3-Ethylcarboxy-4H-imidazo[5,1-c]-1,4-benzoxazin-6-yl)-5-fluoro-N4-(3-hydroxyphenyl)pyrimidinediamine [R909267] | 6.23 | < 5.00 | – |
| N2-(Carboxymethyleneaminophenyl)-5-fluoro-N4-[3-(2-hydroxyethyloxy)phenyl]-2,4-pyrimidinediamine [R950230] | 5.10 | < 5.00 | – |
| N2-[3-(N-2-Aminoethylamino)carbonylmethylene aminophenyl]-5-fluoro-N4-[3-(2-hydroxyethylenoxy)phenyl]-2,4-pyrimidinediamine [R950232] | 5.00 | < 5.00 | – |

Now from value to compound, other results behind:

| pIC50 [2] | pIC50 [3] | Compound | further results |
| --- | --- | --- | --- |
| 5.99 | 5.51 | CCOC(=O)COc1ccc(Nc2ncc(F)c(Nc3ccc4c(c3)OCCO4)n2)cc1 [R925747, N2-(4-Ethoxycarbonylmethyleneoxyphenyl)-N4-(3,4-ethylenedioxyphenyl)-5-fluoro-2,4-pyrimidinediamine] | pIC50 [1]: 5.51 |
| – | < 5.00 | Oc1cccc(Nc2nc(Nc3ccc4cn[nH]c4c3)ncc2F)c1 [R935191, 5-Fluoro-N4-(3-hydroxyphenyl)-N2-(indazolin-6-yl)-2,4-pyrimidinediamine] | pIC50 [1]: 7.17; pIC50 [5]: 6.67; pIC50 [6]: 7.15 |
| – | < 5.00 | Cn1ncc2cc(Nc3ncc(F)c(Nc4cccc(O)c4)n3)ccc21 [R935194, 5-Fluoro-N4-(3-hydroxyphenyl)-N2-(1-methy-indazoline-5-yl)-2,4-pyrimidinediamine] | pIC50 [7]: 7.27; pIC50 [8]: 7.47; pIC50 [5]: 6.31 |
| – | < 5.00 | CC(C)c1cccc(Nc2nc(Nc3cccc(OCC(=O)NCC(O)CO)c3)ncc2F)c1 (centres unmarked) [R940290, N2-[3-(N-2,3-Dihydroxypropylamino)carbonylmethyleneoxyphenyl]-5-fluoro-N4-(3-isopropylphenyl)-2,4-pyrimidinediamine] | pIC50 [7]: 6.26; pIC50 [8]: 7.00; pIC50 [5]: 6.23 |
| 5.43 | 5.09 | CCOC(=O)COc1cccc(Nc2ncc(F)c(Nc3ccc(O)c(C(=O)OC)c3)n2)c1 [R950293, N4-(3-Methoxycarbonyl-4-hydroxyphenyl)-5-fluoro-N2-[3-ethoxycarbonylmethyleneoxyphenyl]-2,4-pyrimidinediamine] | – |
| 5.70 | 5.10 | CCOC(=O)COc1cccc(Nc2ncc(F)c(Nc3ccc4c(c3)C(OC)CCO4)n2)c1 (centres unmarked) [R950294, N4-(4-Methoxy-3,4-dihydro-2H-1-benzopyran-6-yl)-5-fluoro-N2-[3-ethoxycarbonylmethyleneoxyphenyl]-2,4-pyrimidinediamine] | – |
| 5.69 | 5.06 | COC(=O)COc1cccc(Nc2ncc(F)c(Nc3ccc4c(c3)C(OC)CCO4)n2)c1 (centres unmarked) [R950295, N4-(4-Methoxy-3,4-dihydro-2H-1-benzopyran-6-yl)-5-fluoro-N2-[3-methoxycarbonylmethyleneoxyphenyl]-2,4-pyrimidinediamine] | – |
| 6.31 | < 5.00 | CCOC1CCOc2ccc(Nc3nc(Nc4cccc(OCC(=O)NC)c4)ncc3F)cc21 (centres unmarked) [R950296, N4-(4-Ethoxy-3,4-dihydro-2H-1-benzopyran-6-yl)-5-fluoro-N2-[3-(N-methylamino)carbonylmethyleneoxyphenyl]-2,4-pyrimidinediamine] | – |
| 6.46 | < 5.00 | CNC(=O)COc1cccc(Nc2ncc(F)c(Nc3ccc(OCCC(=O)OC)cc3)n2)c1 [R950346, N4-(4-Methoxycarbonylethyleneoxyphenyl)-5-fluoro-N2-[3-(N-methylamino)carbonylmethyleneoxyphenyl]-2,4-pyrimidinediamine] | – |
| 7.11 | < 5.00 | CNC(=O)COc1cccc(Nc2ncc(F)c(Nc3ccc4c(c3)C(O)CCO4)n2)c1 (centres unmarked) [R950349, N4-(4-Hydroxy-3,4-dihydro-2H-1-benzopyran-6-yl)-5-fluoro-N2-[3-(N-methylamino)carbonylmethyleneoxyphenyl]-2,4-pyrimidinediamine] | – |
| 5.87 | < 5.00 | CNC(=O)COc1cccc(Nc2ncc(F)c(Nc3cccc(C(=O)c4ccccc4)c3)n2)c1 [R950372, N4-(3-Phenylcarbonylphenyl)-5-fluoro-N2-[3-(N-methylamino)carbonylmethyleneoxyphenyl]-2,4-pyrimidinediamine] | – |
| 6.22 | < 5.00 | CNC(=O)COc1cccc(Nc2ncc(F)c(Nc3cccc(C(=NO)c4ccccc4)c3)n2)c1 [R950374, N4-(3-Phenylcarbonyloximephenyl)-5-fluoro-N2-[3-(N-methylamino)carbonylmethyleneoxyphenyl]-2,4-pyrimidinediamine] | – |
